Results on eight molecules are retold here after PMC5629628, “The development of activatable lytic peptides for targeting triple negative breast cancer” (Cell Death Discovery, 2017).

The subject of series [1] is MDA-MB-231. Kind of series: MTT cell viability, MDA-MB-231. It is filed as cell-based, human. As to conditions: for IC50: 5% FBS medium, 310 K, mean (standard deviation).
The subject of another series is mouse red blood cells. Kind of series: Haemolytic activity. It is filed as cell-based. The method, then:
Fresh mouse red blood cells were collected and centrifuged at 800 rpm for 5 min. The erythrocytes were washed and re suspended in 0.9% NaCl to 10^8/ml. A serial dilution of peptides were added and incubate at 310 K. After 1 h incubation, erythrocytes were centrifuged and the release of hemoglobin was monitored by measuring the absorbance of supernatant at 570 nm by a microplate reader (PerkinElmer).

For a further series, the system named is HEK293T. Kind of series: Cell viability, non-tumourigenic HEK293T. In kind it is cell-based. As to conditions: 24 h treatment.
The next series deals with MDA-MB-231 tumour. Kind of series: In vivo fluorescence imaging and tissue distribution. The arrangement: species or system mice. Conditions: Cy5-labelled peptides, n=2. The method, then: Four-week-old nude mice were purchased from the Vital River (Beijing, China) and allowed to grow for further two weeks. Approximately 1×10^6 MDA-MB-231 cells were injected into the mammary fat pads of female mice in a vehicle of 4 mg/ml Matrigel (Becton Dickinson and Co., New York, NY, USA). One week later, mice bearing tumours around 50 mm^3 in volume were randomly divided into groups for subsequent experiments.
For optical imaging, mice were anesthetized with isoflurane. Cy5-labelled peptides were injected intravenously at a dose of 100 μl, 50 μM. At each time point, mice were again anesthetized and imaged using IVIS Spectrum Pre-clinical In Vivo Imaging System (640 nm/680 nm). Fluorescence in manually set regions of interest was quantified by Living Image. The contrast ratio was calculated by dividing the tumour fluorescence by the chest and abdomen fluorescence.

In another series the test system is nude mice. Kind of series: Acute toxicity in mice. In kind it is in vivo. As to conditions: 40 mg/kg (200 μl, 4 mg/ml) intravenous, n=3 per group. The method, then: In acute toxicity studies, 12 mice were divided into four groups (n=3 for each group) and administered via intravenous injection with peptide (e8-Uk14, e7-Ur11) at the dose of 20 or 40 mg/kg. In chronic renal toxicity studies, mice were administered via intravenous injection with peptide (e8-Uk14, e7-Ur11) at the dose of 20 mg/kg every other day over a periods of 2 weeks.

For the next series, the system named is HeLa. Conditions: read-out: IC50 (μM), HeLa; MTT assay, 24 h treatment, 5% FBS medium, 310 K; mean (standard deviation). The method, then: (§1) 100 μl of 4×10^4/ml cell suspension (MDA-MB-231, MCF-7, HeLa, SK-OV-3) was placed in each well of the 96-well culture plate and allowed to grow in dulbecco's modified eagle medium or Leibovitz medium (L-15) supplemented with 10% fetal bovine serum overnight. The cells were incubated with serial dilution of compounds at 310 K in 5% fetal bovine serum containing media for 24 h supplied with 5% CO2. At the end of the compounds exposure, 20 μl of 3-(4,5-dimethyl-2-thiazolyl)-2,5-diphenyl-2-H-tetrazolium bromide reagent was added and incubated at 310 K for 4 h. The absorbance of formazan product was measured at 490 nm by a microplate reader (PerkinElmer, Waltham, MA, USA). Cells without peptide were treated as control. *P<0.05, **P<0.01, ***P<0.001 compared with vehicle-treated cells. In Z-VAD-FMK assays, *P<0.05, **P<0.01, ***P<0.001 compared with cells without treatment of Z-VAD-FMK.
Background: Tetrazolium dyes change colour on reduction, which living cells bring about.

A further series has as its system MCF-7. Conditions: read-out: IC50 (μM), MCF-7; MTT assay, 24 h treatment, 5% FBS medium, 310 K; mean (standard deviation). The method, then: as §1
For the next series, the system named is SK-OV-3. As to conditions: read-out: IC50 (μM), SK-OV-3; MTT assay, 24 h treatment, 5% FBS medium, 310 K; mean (standard deviation). The method, then: as §1
Series [2] deals with MDA-MB-231. Kind of series: Cell viability with or without caspase inhibitor Z-VAD-FMK. It is filed as cell-based, human.
Setting [3] is: organs excised 6 h after injection.

Where two headings read alike, the source gives them in different places. Non-standard residues stand in square brackets, D forms with d. Residues, ends and D or L forms follow the SMILES beside them. Aib = CC(C)(N)C(=O)O; Ahx = NCCCCCC(=O)O; βAla = NCCC(=O)O

The IC50 is the point on the concentration scale where inhibition reaches its midpoint. As to `CC(=O)N[C@H](Cc1c[nH]c2ccccc12)C(=O)NCCC(=O)N[C@H](CCCCN)C(=O)N[C@H](CC(C)C)C(=O)N[C@H](C)C(=O)N[C@H](CCCCN)C(=O)N[C@H](CC(C)C)C(=O)N[C@H](C)C(=O)N[C@H](CCCCN)C(=O)N[C@H](CCCCN)C(=O)N[C@H](CC(C)C)C(=O)N[C@H](C)C(=O)N[C@H](CCCCN)C(=O)N[C@H](CC(C)C)C(=O)N[C@H](C)C(=O)N[C@H](CCCCN)C(N)=O` [ak14], in the series with MDA-MB-231 [1] (MTT assay, 24 h treatment), the “cytotoxic activity towards MDA-MB-231 cells (in words)” value is on record as “only moderate efficiency” and the IC50 is > 30 µM.
Turning to `CC(=O)N[C@H](Cc1c[nH]c2ccccc12)C(=O)NCCC(=O)N[C@H](CCC(=O)O)C(=O)N[C@H](CCC(=O)O)C(=O)N[C@H](CCC(=O)O)C(=O)N[C@H](CCC(=O)O)C(=O)N[C@H](CCC(=O)O)C(=O)N[C@H](CCC(=O)O)C(=O)N[C@H](CCC(=O)O)C(=O)N[C@H](CCC(=O)O)C(=O)NCCCCCC(=O)N1CCC[C@H]1C(=O)N[C@@H](CC(C)C)C(=O)NCC(=O)N[C@@H](CC(C)C)C(=O)N[C@@H](C)C(=O)NCC(=O)N[C@H](CCCCN)C(=O)N[C@H](CC(C)C)C(=O)NC(C)(C)C(=O)N[C@H](CCCCN)C(=O)N[C@H](CC(C)C)C(=O)NC(C)(C)C(=O)N[C@H](CCCCN)C(=O)N[C@H](CCCCN)C(=O)N[C@H](CC(C)C)C(=O)NC(C)(C)C(=O)N[C@H](CCCCN)C(=O)N[C@H](CC(C)C)C(=O)NC(C)(C)C(=O)N[C@H](CCCCN)C(N)=O` [e8-Uk14] (Ac-[dW][βAla][dE][dE][dE][dE][dE][dE][dE][dE][Ahx]PLGLAG[dK][dL][Aib][dK][dL][Aib][dK][dK][dL][Aib][dK][dL][Aib][dK]-NH2), the haemolytic activity result in the series with mouse red blood cells (mouse red blood cells 10^8/ml in 0.9% NaCl, 1 h, 310 K, absorbance 570 nm) is “diminished membrane disruption and haemolysis”. Further, the “cytotoxicity against non-tumourigenic HEK293T” value with HEK293T was “no obvious cytotoxicity”. Also, the “tumour accumulation (in vivo fluorescence imaging)” value in the series on MDA-MB-231 tumour (100 μl 50 μM, tail vein, MDA-MB-231 tumour-bearing mice) was “significantly higher accumulation in tumours compared to unmodified peptides”. Besides, in the series with MDA-MB-231 tumour (setting [3]), the accumulation in kidney result was “lower accumulation in the kidney”; the accumulation in liver entry is listed as “higher accumulation in the liver”; the “uptake in excised tumour” value was “higher compared to UK14 and Ur11”. In addition, in the series on nude mice, the “acute toxicity (survival)” value is reported as “no acute toxicity”.
For the molecule `CC(=O)N[C@H](Cc1c[nH]c2ccccc12)C(=O)NCCC(=O)N[C@H](CC(C)C)C(=O)N[C@H](CC(C)C)C(=O)N[C@H](CC(C)C)C(=O)N[C@H](CC(C)C)C(=O)NC(C)(C)C(=O)NC(C)(C)C(=O)NC(C)(C)C(=O)NC(C)(C)C(=O)N[C@H](CCCCN)C(=O)N[C@H](CCCCN)C(=O)N[C@H](CCCCN)C(=O)N[C@H](CCCCN)C(=O)N[C@H](CCCCN)C(=O)N[C@H](CCCCN)C(N)=O` [lUk] (Ac-[dW][βAla][dL][dL][dL][dL][Aib][Aib][Aib][Aib][dK][dK][dK][dK][dK][dK]-NH2), in the series on MDA-MB-231 [1] (MTT assay, 24 h treatment), the “cytotoxic activity towards MDA-MB-231 cells (in words)” value is given as “decreased efficiency”.
Still for that read-out and setting: next, `CC(=O)N[C@H](Cc1c[nH]c2ccccc12)C(=O)NCCC(=O)N[C@H](CCCNC(=N)N)C(=O)N[C@H](CC(C)C)C(=O)NC(C)(C)C(=O)N[C@H](CCCNC(=N)N)C(=O)N[C@H](CC(C)C)C(=O)NC(C)(C)C(=O)N[C@H](CCCNC(=N)N)C(=O)N[C@H](CCCNC(=N)N)C(=O)N[C@H](CC(C)C)C(=O)NC(C)(C)C(=O)N[C@H](CCCNC(=N)N)C(=O)N[C@H](CC(C)C)C(=O)NC(C)(C)C(=O)N[C@H](CCCNC(=N)N)C(N)=O` [Ur14] (Ac-[dW][βAla][dR][dL][Aib][dR][dL][Aib][dR][dR][dL][Aib][dR][dL][Aib][dR]-NH2): “no significant improvements”; `CC(=O)N[C@H](Cc1c[nH]c2ccccc12)C(=O)NCCC(=O)N[C@H](CCCCN)C(=O)N[C@H](CC(C)C)C(=O)NC(C)(C)C(=O)N[C@H](CCCCN)C(=O)N[C@H](CCCCN)C(=O)N[C@H](CC(C)C)C(=O)NC(C)(C)C(=O)N[C@H](CCCCN)C(=O)N[C@H](CC(C)C)C(=O)NC(C)(C)C(=O)N[C@H](CCCCN)C(N)=O` [Uk11] (Ac-[dW][βAla][dK][dL][Aib][dK][dK][dL][Aib][dK][dL][Aib][dK]-NH2): “decreased efficiency”; `CC(=O)N[C@H](Cc1c[nH]c2ccccc12)C(=O)NCCC(=O)N[C@H](CC(C)C)C(=O)NC(C)(C)C(=O)N[C@H](CCCNC(=N)N)C(=O)N[C@H](CCCNC(=N)N)C(=O)N[C@H](CC(C)C)C(=O)NC(C)(C)C(=O)N[C@H](CCCNC(=N)N)C(=O)N[C@H](CC(C)C)C(=O)NC(C)(C)C(=O)N[C@H](CCCNC(=N)N)C(N)=O` [Ur10] (Ac-[dW][βAla][dL][Aib][dR][dR][dL][Aib][dR][dL][Aib][dR]-NH2): “greatly diminished activity”.
Take `CC(=O)N[C@H](Cc1c[nH]c2ccccc12)C(=O)NCCC(=O)N[C@H](CCCCN)C(=O)N[C@H](CC(C)C)C(=O)NC(C)(C)C(=O)N[C@H](CCCCN)C(=O)N[C@H](CC(C)C)C(=O)NC(C)(C)C(=O)N[C@H](CCCCN)C(=O)N[C@H](CCCCN)C(=O)N[C@H](CC(C)C)C(=O)NC(C)(C)C(=O)N[C@H](CCCCN)C(=O)N[C@H](CC(C)C)C(=O)NC(C)(C)C(=O)N[C@H](CCCCN)C(N)=O` [Uk14] (Ac-[dW][βAla][dK][dL][Aib][dK][dL][Aib][dK][dK][dL][Aib][dK][dL][Aib][dK]-NH2): the IC50 in the series on MDA-MB-231 [1] (MTT assay, 24 h treatment) was 4.5 µM; in the series with HeLa, 4.8 µM; in the series on MCF-7 it was 4.7 µM; in the series on SK-OV-3, 5.1 µM. The haemolytic activity entry in the series with mouse red blood cells is “strong haemolytic activity”. Also, in the series on MDA-MB-231 [2], the “effect of caspase inhibitor Z-VAD-FMK on cytotoxic effect” value is listed as “did not block”.
With `CC(=O)N[C@H](Cc1c[nH]c2ccccc12)C(=O)NCCC(=O)N[C@H](CCCNC(=N)N)C(=O)N[C@H](CC(C)C)C(=O)NC(C)(C)C(=O)N[C@H](CCCNC(=N)N)C(=O)N[C@H](CCCNC(=N)N)C(=O)N[C@H](CC(C)C)C(=O)NC(C)(C)C(=O)N[C@H](CCCNC(=N)N)C(=O)N[C@H](CC(C)C)C(=O)NC(C)(C)C(=O)N[C@H](CCCNC(=N)N)C(N)=O` [Ur11] (Ac-[dW][βAla][dR][dL][Aib][dR][dR][dL][Aib][dR][dL][Aib][dR]-NH2), in the series with MDA-MB-231 [1], the “cytotoxic activity towards MDA-MB-231 cells (in words)” value is on record as “no change in activity”. In addition, the IC50 with MDA-MB-231 [1] (MTT assay, 24 h treatment) came out at 8.9 µM; with HeLa it was 5.9 µM; in the series on MCF-7, 5.6 µM; in the series on SK-OV-3, 5.1 µM. In the series on mouse red blood cells, the haemolytic activity entry was “strong haemolytic activity”. Also, the “effect of caspase inhibitor Z-VAD-FMK on cytotoxic effect” value in the series with MDA-MB-231 [2] is given as “did not block”.
